The source of these data is patent US12599597B2, “Substituted N-benzhydrylacetamide inhibitors of jumanji domain histone demethylases for the treatment of cancer” (University of Kentucky Research Foundation, priority 2020, dated 2026).

One test deals with CRC cells. Nature of the test: CRC cell proliferation. The test is classed as cell-based. The source says:
KDM3A is a Jumonji domain-containing demethylase that regulates the demethylation of histone H3's lysine 9 (H3K9Me^2).

The next test concerns the target JMJD3 (KDM6B) (Homo sapiens, UniProt O15054). Put plainly: Histone demethylase assay, purified enzyme panel. Type of test: biochemical. Conditions: 58B1, 10 μM. The source says: (§1) Histone Demethylase Assay
(§2) To further examine the effects of 58B1 on histone demethylase, we screened a panel of purified histone demethylases was screened.

The target of another test is T1, JMJD2C (KDM4C) (Homo sapiens, UniProt Q9H3R0).
T1 sequence (Q9H3R0 1-1056): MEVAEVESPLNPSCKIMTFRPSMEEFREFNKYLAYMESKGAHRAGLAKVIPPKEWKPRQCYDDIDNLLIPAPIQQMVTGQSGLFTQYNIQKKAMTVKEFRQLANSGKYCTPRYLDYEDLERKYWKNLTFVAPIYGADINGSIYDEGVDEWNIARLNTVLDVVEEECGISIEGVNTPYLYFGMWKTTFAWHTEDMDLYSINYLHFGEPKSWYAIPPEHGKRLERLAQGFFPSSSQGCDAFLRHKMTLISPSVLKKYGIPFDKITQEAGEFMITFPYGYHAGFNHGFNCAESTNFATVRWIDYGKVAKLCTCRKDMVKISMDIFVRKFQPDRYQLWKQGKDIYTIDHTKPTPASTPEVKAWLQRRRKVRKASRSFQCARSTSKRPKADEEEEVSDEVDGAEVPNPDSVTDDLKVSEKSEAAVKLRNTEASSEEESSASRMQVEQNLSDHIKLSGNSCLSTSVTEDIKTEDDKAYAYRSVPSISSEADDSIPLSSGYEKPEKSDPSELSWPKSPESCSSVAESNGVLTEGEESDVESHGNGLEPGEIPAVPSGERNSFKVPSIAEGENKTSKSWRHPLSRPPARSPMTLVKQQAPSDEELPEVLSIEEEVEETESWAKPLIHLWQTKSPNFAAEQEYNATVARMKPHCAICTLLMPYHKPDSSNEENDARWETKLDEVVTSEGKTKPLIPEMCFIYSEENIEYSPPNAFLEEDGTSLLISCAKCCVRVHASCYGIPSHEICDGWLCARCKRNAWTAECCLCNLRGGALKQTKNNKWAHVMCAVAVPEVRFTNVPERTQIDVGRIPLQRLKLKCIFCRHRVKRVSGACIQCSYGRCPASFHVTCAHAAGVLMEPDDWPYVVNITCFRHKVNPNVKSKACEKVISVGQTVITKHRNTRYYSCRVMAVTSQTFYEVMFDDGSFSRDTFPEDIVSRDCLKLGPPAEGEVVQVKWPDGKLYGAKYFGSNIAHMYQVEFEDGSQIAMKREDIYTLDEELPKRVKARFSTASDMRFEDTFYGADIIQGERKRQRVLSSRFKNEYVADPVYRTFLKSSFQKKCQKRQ
Put plainly: Histone demethylase assay, purified enzyme panel. The test is classed as biochemical. Conditions: 58B1, 10 μM.
Description: as §1, §2

In the next test the target is T2, FBXL10 (KDM2B) (Homo sapiens, UniProt Q8NHM5).
T2 sequence (Q8NHM5 1-1336): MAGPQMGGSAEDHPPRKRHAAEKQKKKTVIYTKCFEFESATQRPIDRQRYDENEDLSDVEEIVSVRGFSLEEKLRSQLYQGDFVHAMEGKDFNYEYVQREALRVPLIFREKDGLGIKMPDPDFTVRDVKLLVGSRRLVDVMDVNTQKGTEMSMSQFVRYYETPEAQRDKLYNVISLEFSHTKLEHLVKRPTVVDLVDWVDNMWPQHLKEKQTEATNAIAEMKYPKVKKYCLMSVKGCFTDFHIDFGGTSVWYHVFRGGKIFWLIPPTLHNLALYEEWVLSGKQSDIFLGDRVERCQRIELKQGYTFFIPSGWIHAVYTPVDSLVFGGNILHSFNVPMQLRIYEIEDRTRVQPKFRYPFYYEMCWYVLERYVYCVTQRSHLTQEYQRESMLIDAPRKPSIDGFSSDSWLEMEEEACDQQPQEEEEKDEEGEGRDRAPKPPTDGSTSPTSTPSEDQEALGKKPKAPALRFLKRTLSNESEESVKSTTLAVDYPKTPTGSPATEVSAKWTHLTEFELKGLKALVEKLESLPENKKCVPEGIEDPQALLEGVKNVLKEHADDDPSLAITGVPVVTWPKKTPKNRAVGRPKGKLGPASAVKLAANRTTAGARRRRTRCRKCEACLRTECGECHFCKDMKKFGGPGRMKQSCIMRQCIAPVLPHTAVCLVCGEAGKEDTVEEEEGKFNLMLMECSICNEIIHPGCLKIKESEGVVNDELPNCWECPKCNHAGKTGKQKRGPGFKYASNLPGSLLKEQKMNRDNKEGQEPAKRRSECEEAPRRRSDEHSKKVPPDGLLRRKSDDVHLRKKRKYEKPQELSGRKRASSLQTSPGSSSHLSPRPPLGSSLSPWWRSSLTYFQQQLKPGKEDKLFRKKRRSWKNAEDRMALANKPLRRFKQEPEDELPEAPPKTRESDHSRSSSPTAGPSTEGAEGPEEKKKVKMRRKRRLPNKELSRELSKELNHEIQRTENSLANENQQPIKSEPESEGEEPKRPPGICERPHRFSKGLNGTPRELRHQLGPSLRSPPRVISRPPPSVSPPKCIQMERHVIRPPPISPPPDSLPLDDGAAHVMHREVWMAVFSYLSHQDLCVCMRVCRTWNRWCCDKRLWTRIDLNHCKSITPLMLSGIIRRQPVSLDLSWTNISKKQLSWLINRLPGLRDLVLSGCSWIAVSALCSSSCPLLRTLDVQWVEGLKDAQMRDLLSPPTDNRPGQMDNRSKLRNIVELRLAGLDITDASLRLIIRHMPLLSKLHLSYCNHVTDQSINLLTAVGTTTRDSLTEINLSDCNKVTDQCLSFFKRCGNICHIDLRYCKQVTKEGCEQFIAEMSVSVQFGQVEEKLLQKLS
Put plainly: Histone demethylase assay, purified enzyme panel. The test is classed as biochemical. Conditions: 58B1, 10 μM.
Description: as §1, §2

The target of another test is Jarid1B (KDM5B) (Homo sapiens, UniProt Q9UGL1). Put plainly: Histone demethylase assay, purified enzyme panel. The test is classed as biochemical. Conditions: 58B1, 10 μM.
Jarid1B (KDM5B), sequence (Q9UGL1 whole entry): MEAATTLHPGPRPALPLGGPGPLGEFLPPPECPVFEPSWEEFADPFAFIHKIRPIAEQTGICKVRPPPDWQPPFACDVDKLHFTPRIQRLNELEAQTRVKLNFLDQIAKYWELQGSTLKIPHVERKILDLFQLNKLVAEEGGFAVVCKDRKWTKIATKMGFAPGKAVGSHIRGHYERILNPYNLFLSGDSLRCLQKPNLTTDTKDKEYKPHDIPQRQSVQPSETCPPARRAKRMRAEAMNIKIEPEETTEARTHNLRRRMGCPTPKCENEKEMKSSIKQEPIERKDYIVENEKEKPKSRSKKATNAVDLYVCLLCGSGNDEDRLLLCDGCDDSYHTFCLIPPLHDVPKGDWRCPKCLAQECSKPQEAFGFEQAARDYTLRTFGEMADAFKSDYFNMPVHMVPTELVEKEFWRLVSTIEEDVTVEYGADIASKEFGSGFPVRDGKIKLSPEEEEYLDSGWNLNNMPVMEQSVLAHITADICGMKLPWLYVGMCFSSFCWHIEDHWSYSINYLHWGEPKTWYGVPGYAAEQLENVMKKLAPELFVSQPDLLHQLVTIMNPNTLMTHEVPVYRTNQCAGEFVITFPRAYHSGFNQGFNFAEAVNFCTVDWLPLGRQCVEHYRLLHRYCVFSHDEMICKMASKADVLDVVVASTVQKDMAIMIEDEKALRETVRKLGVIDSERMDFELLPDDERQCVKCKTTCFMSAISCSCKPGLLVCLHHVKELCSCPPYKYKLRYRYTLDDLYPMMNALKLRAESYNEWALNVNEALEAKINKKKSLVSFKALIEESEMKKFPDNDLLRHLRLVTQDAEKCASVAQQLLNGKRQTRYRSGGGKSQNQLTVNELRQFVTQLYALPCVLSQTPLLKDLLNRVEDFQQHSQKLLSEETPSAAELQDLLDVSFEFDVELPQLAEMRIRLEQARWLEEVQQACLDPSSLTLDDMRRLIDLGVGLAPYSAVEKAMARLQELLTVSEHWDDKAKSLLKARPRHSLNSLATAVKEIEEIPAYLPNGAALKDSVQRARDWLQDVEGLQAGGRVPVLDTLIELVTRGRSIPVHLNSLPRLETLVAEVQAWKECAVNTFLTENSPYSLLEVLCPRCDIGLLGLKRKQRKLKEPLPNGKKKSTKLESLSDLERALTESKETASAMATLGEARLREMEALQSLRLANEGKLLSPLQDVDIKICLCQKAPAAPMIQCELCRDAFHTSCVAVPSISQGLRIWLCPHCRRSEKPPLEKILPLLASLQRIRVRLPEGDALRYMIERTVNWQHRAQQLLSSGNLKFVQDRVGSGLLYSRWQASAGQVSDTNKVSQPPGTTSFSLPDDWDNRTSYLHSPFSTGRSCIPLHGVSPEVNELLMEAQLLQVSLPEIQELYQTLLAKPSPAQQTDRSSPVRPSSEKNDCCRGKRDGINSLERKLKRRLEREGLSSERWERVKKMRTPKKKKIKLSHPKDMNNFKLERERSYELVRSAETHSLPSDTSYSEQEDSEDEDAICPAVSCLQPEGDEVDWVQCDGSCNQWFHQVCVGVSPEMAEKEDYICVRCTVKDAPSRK
Description: as §1, §2

JMJD3 (KDM6B), sequence (O15054 whole entry): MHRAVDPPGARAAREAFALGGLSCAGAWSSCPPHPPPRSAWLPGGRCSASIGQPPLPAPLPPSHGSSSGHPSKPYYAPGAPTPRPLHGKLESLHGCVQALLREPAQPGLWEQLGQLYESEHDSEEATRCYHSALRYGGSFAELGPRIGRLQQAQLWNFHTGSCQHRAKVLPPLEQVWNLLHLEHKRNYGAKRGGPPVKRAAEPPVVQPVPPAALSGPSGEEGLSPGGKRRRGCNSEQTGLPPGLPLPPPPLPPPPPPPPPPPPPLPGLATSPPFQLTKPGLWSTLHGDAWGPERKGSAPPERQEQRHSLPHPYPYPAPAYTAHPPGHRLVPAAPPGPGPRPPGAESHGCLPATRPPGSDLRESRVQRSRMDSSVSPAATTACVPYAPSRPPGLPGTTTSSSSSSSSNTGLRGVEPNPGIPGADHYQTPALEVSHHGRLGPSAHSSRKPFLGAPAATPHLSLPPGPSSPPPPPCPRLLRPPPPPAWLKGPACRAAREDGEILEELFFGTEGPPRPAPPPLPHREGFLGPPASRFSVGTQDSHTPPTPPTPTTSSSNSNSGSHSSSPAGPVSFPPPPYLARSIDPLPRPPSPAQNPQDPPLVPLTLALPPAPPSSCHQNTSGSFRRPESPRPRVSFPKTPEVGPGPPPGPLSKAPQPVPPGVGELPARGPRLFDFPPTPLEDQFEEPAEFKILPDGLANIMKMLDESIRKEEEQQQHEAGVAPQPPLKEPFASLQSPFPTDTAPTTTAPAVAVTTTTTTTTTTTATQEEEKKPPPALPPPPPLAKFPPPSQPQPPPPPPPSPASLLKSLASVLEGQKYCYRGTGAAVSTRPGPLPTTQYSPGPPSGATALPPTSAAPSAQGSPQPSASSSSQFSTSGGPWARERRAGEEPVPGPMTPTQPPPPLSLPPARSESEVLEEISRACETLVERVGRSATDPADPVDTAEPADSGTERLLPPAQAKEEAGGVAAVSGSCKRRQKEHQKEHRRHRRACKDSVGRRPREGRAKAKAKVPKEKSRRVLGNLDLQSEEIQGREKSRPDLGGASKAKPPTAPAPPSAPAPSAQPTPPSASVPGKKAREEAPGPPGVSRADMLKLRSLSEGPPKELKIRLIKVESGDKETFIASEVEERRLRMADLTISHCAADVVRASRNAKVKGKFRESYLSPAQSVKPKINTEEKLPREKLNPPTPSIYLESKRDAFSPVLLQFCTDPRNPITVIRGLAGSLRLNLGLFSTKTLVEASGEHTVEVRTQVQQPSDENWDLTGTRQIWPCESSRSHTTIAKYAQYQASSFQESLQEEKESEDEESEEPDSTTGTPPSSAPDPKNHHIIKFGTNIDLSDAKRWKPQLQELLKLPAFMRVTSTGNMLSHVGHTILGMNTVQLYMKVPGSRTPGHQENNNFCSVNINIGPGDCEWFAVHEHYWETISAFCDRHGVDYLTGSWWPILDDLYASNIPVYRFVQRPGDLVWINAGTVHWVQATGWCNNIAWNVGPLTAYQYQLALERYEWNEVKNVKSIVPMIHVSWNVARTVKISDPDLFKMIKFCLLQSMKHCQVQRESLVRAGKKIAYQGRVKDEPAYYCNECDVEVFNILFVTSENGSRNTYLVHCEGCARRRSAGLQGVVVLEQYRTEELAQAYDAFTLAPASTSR

Consider `CCCC(=O)NC(c1ccc(N(CC)CC)cc1)c1cc(Cl)c2cccnc2c1O` (stereo not drawn) [58B1], for which the CRC cell proliferation result with CRC cells (at 100 nM concentration) is listed as “inhibited”. In addition, the “sensitivity of CRC cells compared with normal colon cells” value with CRC cells (expected) was “more sensitive”. Moreover, the inhibition at 10 µM at JMJD3 (KDM6B) came to 94%; at JMJD2C (KDM4C), 72%; against FBXL10 (KDM2B), 30%; against Jarid1B (KDM5B), 95%.
